Results: patent publication US20080085244A1, “Methods for identifying and using amyloid-inhibitory compounds” (Wyeth, priority 1999, published 2008)
Where two headings read alike, the source gives them in different places.

Legend:
Aβ40 and Aβ42 peptides [1] = conditions: physiological concentrations; rodent primary neuronal (embryonic cerebral cortex) cultures; cited from earlier work
[2] = Serum E2 levels in ovariectomized APP transgenic rodents; format: in vivo, transgenic mice and rats (human APP); conditions: ovx APP transgenic rodents, E2 in chow 10 days, compared to untreated ovx
Source text: (§1) Transgenic APP and APP/PS rodents. Transgenic animals relevant to Alzheimer's Disease have been reviewed (Seabrook and Rosahl, Neuropharmacology, 1999, 38:1-17; see, Detailed Description, supra). Both mice and rats have been made transgenic for APP, for PS1 and for both genes, and with wild-type and FAD mutant forms of the genes,. One group of these animals is ovariectomized. 17β-Estradiol (E2) is purchased from Sigma (St. Louis, Mo.). Animals are fed ad libitum in a controlled lighting environment, using a casine-based, soy-free diet, as described in Example 1. […] E2 is administered per os by powdering the hormone in the soy-free chow. All animals are weighed at the beginning prior to treatment. Average daily food intake is determined prior to treatment as well.
(§2) Tissue collection. After treatment, all animals are sacrificed by decapitation. Trunk blood is collected for determination of E2 levels. Uteri are removed and weighed to establish the presence of atrophy due to estrogen deficiency or E2-induced hypertrophy. Brains are immediately removed and the cerebellum dissected away. The brain is divided into hemispheres which are snap-frozen and stored at −80° C.

[3] = Uterine weight in ovariectomized APP transgenic rodents; format: in vivo, transgenic mice and rats (human APP); conditions: ovx APP transgenic rodents, E2 in chow 10 days, compared to untreated ovx
Source text: as §1, §2

brain Aβ (Aβ40, Aβ42) = assay: Brain Aβ40, Aβ42 and total Aβ levels by ELISA of DEA brain extracts of ovariectomized guinea pigs; format: in vivo, guinea pig
Method: Maintenance of animals and treatment. Ovariectomized (ovx) and intact female guinea pigs were purchased from Hilltop Laboratories (Scottsdale, Pa.); ovx animals were 8 weeks old at the time of surgery. […] Throughout the study, the animals were fed ad libitum in a controlled lighting environment (12 h/12 h light/dark cycles). After the surgery, the ovx guinea pigs were put on a casein-based, soy-free diet (Purina, Richmond, Ind.) to exclude the presence of phytosteroids in the diet. The intact animals also began receiving soy-free food at approximately 8 weeks of age. […] Prior to the beginning of the treatment, all animals were weighed. The average daily food intake for each animal using this particular diet was determined in a preliminary experiment.
Tissue collection. At the end of the treatment, all animals were sacrificed by decapitation. […] The brains were immediately removed, and the cerebellum was dissected away from each brain. The rest of the brain was divided into hemispheres which were snap-frozen and stored at −80° C.
Preparation of Brain Extracts. Soluble Proteins from the Brains were Recovered using a modification of an established protocol (Savage et al., J. Neurosci., 1998, 18:1743-52). Briefly, the hemispheres were homogenized in 0.2% diethylamine (DEA)/50 mM NaCl at 1:10 w/v ratio, with 5-6 strokes of a Dounce homogenizer. The DEA homogenate was centrifuged for 90 min at 100,000 g. The DEA supernatants were neutralized to pH about 8.0 by addition of 1/10th vol. of 0.5M Tris-Cl pH 6.8, then aliquoted and snap-frozen. The pellets of the DEA extracts were solubilized in 2% SDS/PBS containing a cocktail of protease inhibitors (“Complete”, Boehringer Mannheim, Germany), sonicated and boiled. The protein concentrations of the DEA and SDS supernatants were determined using the BCA reagent assay kit (Pierce, Rockford, Ill.).
Detection of sAPPα, flAPP, Aβ40 and Aβ42. The amino acid sequence of APP from guinea pigs is 97% identical to the human APP homologue and the Aβ region is 100% identical to human Aβ (Beck et al., Biochim. Biophys. Acta, 1997, 1351:17-21), thus enabling use of well characterized Aβ antibodies to study the effects of estrogen on APP metabolism.
The levels of Aβ40 and Aβ42 were determined by Aβ40- and Aβ42-specific ELISA assays (Mehta et al, Neurosci. Lett., 1998, 241:13-16). For each animal, the levels of Aβ40, Aβ42, and total Aβ were standardized to brain tissue weight and expressed as ng (Aβ)/g (brain tissue, wet weight). In all experiments, animals were coded prior to tissue collection, and the treatment status of each animal was unknown to the investigators at the time of the assays.
Seven ovx guinea pigs (8 weeks old at the time of ovx) were used. After ovx, the animals were fed soy-free, casein-based diet to avoid the consumption of estrogenic phytosteroids. […] After the treatment, all animals were sacrificed, and blood, uteri, and brains were collected for analysis. […] The levels of Aβ40, Aβ42, and sAPPα in brain tissue were determined using Aβ40- and Aβ42-specific ELISA assays and quantitative immunoblotting, respectively, as described in Methods.

brain Aβ = assay: Brain Aβ levels in ovariectomized APP transgenic rodents; format: in vivo, transgenic mice and rats (human APP); conditions: ovx APP transgenic rodents; approaching the levels found in intact animals
Source text: Preparation of Brain Extracts.
Detection of sAPPα, flAPP, Aβ40 and Aβ42.

[4] = Uterine weight (E2-induced hypertrophy) in ovariectomized guinea pigs; format: in vivo, guinea pig
Method: Maintenance of animals and treatment. Ovariectomized (ovx) and intact female guinea pigs were purchased from Hilltop Laboratories (Scottsdale, Pa.); ovx animals were 8 weeks old at the time of surgery. 17β-estradiol (E2) was purchased from Sigma (St. Louis, Mo.). Throughout the study, the animals were fed ad libitum in a controlled lighting environment (12 h/12 h light/dark cycles). After the surgery, the ovx guinea pigs were put on a casein-based, soy-free diet (Purina, Richmond, Ind.) to exclude the presence of phytosteroids in the diet. The intact animals also began receiving soy-free food at approximately 8 weeks of age. […] E2 was administered per os by powdering the hormone into the soy-free chow. Prior to the beginning of the treatment, all animals were weighed. The average daily food intake for each animal using this particular diet was determined in a preliminary experiment.
Tissue collection. At the end of the treatment, all animals were sacrificed by decapitation. Trunk blood was collected for determination of E2 levels in the serum by radioimmunoassay (Diagnostic Products Laboratory). Uteri were removed and weighed to establish E2-induced hypertrophy. The brains were immediately removed, and the cerebellum was dissected away from each brain. The rest of the brain was divided into hemispheres which were snap-frozen and stored at −80° C.
Seven ovx guinea pigs (8 weeks old at the time of ovx) were used. After ovx, the animals were fed soy-free, casein-based diet to avoid the consumption of estrogenic phytosteroids. […] E2 was administered per os by powdering the hormone into the soy-free chow. […] After the treatment, all animals were sacrificed, and blood, uteri, and brains were collected for analysis. Uterine weights and serum E2 levels were determined to document the hormonal status. The levels of Aβ40, Aβ42, and sAPPα in brain tissue were determined using Aβ40- and Aβ42-specific ELISA assays and quantitative immunoblotting, respectively, as described in Methods.
At the end of the E2 treatment, all animals were sacrificed by decapitation, and blood, uteri, and brains were isolated and subjected to analysis.

Aβ40 and Aβ42 peptides [5] = conditions: physiological concentrations; human primary neuronal (embryonic cerebral cortex) cultures; cited from earlier work
[6] = ovx + high-dose E2, 5 mg E2/kg BW/day per os, 10 days
[7] = ovx + low-dose E2, 1 mg E2/kg BW/day per os, 10 days

serum E2 levels after oral E2 [2]: dramatic increase
SMILES: C[C@]12CC[C@@H]3c4ccc(O)cc4CC[C@H]3[C@@H]1CC[C@@H]2O [E2, 17β-estradiol]
levels of Aβ40 and Aβ42 peptides released (Aβ40 and Aβ42 peptides [1]): decreased
uterine effect of oral E2 [3]: uterine hypertrophy
average decrease in total Aβ levels in brain compared to ovx group (brain Aβ (Aβ40, Aβ42); first experiment, 1 mg E2/kg BW/day per os, 10 days, p=0.09): 20%
Total Aβ (median) (brain Aβ (Aβ40, Aβ42); [6]): 2.094 ngAβ/g brain tissue
Total Aβ mean +/− SEM (brain Aβ (Aβ40, Aβ42); [6]): 1.998 +/− 0.175 ngAβ/g brain tissue
Total Aβ (median) (brain Aβ (Aβ40, Aβ42); [7]): 2.063 ngAβ/g brain tissue
Total Aβ mean +/− SEM (brain Aβ (Aβ40, Aβ42); [7]): 2.023 +/− 0.134 ngAβ/g brain tissue
average decrease in ovx-associated increase in brain Aβ levels (summary statement) (brain Aβ (Aβ40, Aβ42); ovx guinea pigs, E2 for ten days beginning 8 weeks after ovx, p<0.01): 20%
average decrease for Aβ40 compared to ovx (brain Aβ (Aβ40, Aβ42); second experiment, low-dose E2 10 days, p<0.01): 18%
average decrease for Aβ42 compared to ovx (brain Aβ (Aβ40, Aβ42); second experiment, low-dose E2 10 days, p=0.033): 21%
average decrease of total brain Aβ levels compared to ovx (brain Aβ (Aβ40, Aβ42); second experiment, low-dose E2 (1 mg/kg BW/day) 10 days, p<0.01): 18%
levels of brain Aβ after E2 treatment (brain Aβ): decrease
increase in uterine weight, ovx+E2 group compared to ovx group ([4]; first experiment, 1 mg E2/kg BW/day per os, 10 days, p=0.0003): greater than 3 fold
state of uteri ([4]; high-dose E2 for 10 days, weights did not exceed the low-dose group): uterine hypertrophy
state of uteri ([4]; low-dose E2 for 10 days, weights comparable to or higher than intact group): hypertrophied
Uterine weight mean +/− SEM [4, 6]: 1.03 ± 0.08 g
Uterine weight median [4, 6]: 1.055 g
Uterine weight mean +/− SEM [4, 7]: 1.4 ± 0.18 g
Uterine weight median [4, 7]: 1.37 g
levels of Aβ40 and Aβ42 peptides released (Aβ40 and Aβ42 peptides [5]): decreased
